Measured values reported in patent US12354130B2, “Combination therapies” (Genentech, Inc., priority 2012, dated 2025).
Where two headings read alike, the source gives them in different places.

Experiments:
[1] = cited from earlier work
[2] = cited from earlier work; remark: listed apart in the source
[3] = test system: patients with BRAF^V600 mutation-positive, unresectable locally advanced or metastatic melanoma
Excerpt: This multicenter study has 2 stages: a dose-escalation stage and a cohort-expansion stage.
Key inclusion criteria include the presence of the V600E mutation in melanoma tumor tissue using the Cobas® 4800 BRAF V600 mutation test, measurable disease per Response Evaluation Criteria in Solid Tumors (RECIST) v1.1, ECOG PS of ≤1, and adequate hematologic and end organ function as assessed through key laboratory measures. Patients were excluded if they had: ocular pathology or risk factors that predisposes to retinal vein occlusion; QTc>450 ms; or active CNS metastasis. Patients treated with stereotactic radiation therapy or surgery were eligible if stable for >3 weeks prior to treatment.
Each treatment cycle was 28 days.
Dose-escalation used the standard 3+3 design and proceeded in increments, taking into account the safety and tolerability of the combination.
Eligible patients had BRAF^V600-mutated unresectable or metastatic melanoma, and ECOG PS 0-1. Patients were either naïve to vemurafenib or had disease progression on vemurafenib. The study consisted of dose-escalation and expansion stages. […] Primary endpoints were maximum tolerated dose (MTD), dose-limiting toxicity (DLT) of both drugs, safety, and PK.

[4] = test system: unresectable or metastatic melanoma that is BRAFV600E mutation-positive; details: cited from earlier work
[5] = during combination treatment, as of 6 Jul. 2012
[6] = compared with dacarbazine (Chapman et al. 2011)

Row | SMILES | single-agent MTD ([1]; 21/7 schedule) [mg] | dissolution rate of the amorphous form as compared to the crystalline form [2] | solubility in water of the amorphous form as compared with the crystalline form [2] | dose-limiting toxicity event ([3]; cohort 1 (vemurafenib 720 mg BID+GDC-0973 60 mg QD 14/14), led to discontinuation of vemurafenib) | dose-limiting toxicity event ([3]; cohort 1D) | discontinuation of the drug because of QT interval prolongation [3, 5] [patient] | primary dose reduction of the drug because of LFT abnormality [3, 5] [patient] | primary dose reduction of the drug because of central serous retinopathy [3, 5] [patient] | primary dose reduction of the drug because of rash [3, 5] [patient] | temporary interruption of the drug because of arthralgia [3, 5] [patients] | temporary interruption of the drug because of liver function test (LFT) abnormalities [3, 5] [patients] | temporary interruption of the drug because of rash [3, 5] [patients] | single-agent MTD ([1]; in vivo) [mg BID] | response rates ([4]; Flaherty 2010, Chapman 2011, Sosman 2012) | decrease in the risk of disease progression or death [4, 6] [%] | reduction in the risk of death [4, 6] [%]
1 | O=C(c1ccc(F)c(F)c1Nc1ccc(I)cc1F)N1CC(O)([C@@H]2CCCCN2)C1 [GDC-0973, [3,4-difluoro-2-[(2-fluoro-4-iodophenyl)amino]phenyl][3-hydroxy-3-[(2S)-2-piperidinyl]-1-azetidinyl]methanone] | 60 |  |  |  |  |  |  |  |  |  |  |  |  |  |  | 
2 | CCCS(=O)(=O)Nc1ccc(F)c(C(=O)c2c[nH]c3ncc(-c4ccc(Cl)cc4)cc23)c1F [vemurafenib, propane-1-sulfonic acid {3-[5-(4-chlorophenyl)-1H-pyrrolo[2,3-b]pyridine-3-carbonyl]-2,4-difluoro-phenyl}-amide] |  | improved dissolution rate | greater solubility in water | Grade 3 QT prolongation | Grade 3 arthralgia | 1 | 1 | 1 | 1 | 3 | 3 | 8 | 960 | greater than 50% | 74 | 63
